# Data reported in patent US8461185B2, “P2X3 receptor antagonists for treatment of pain” (Merck Sharp & Dohme Corp., priority 2007, dated 2013).
# Target: T1, human P2X3 (Homo sapiens, UniProt P56373)
# T1 construct: expressed in transfected cells
# T1 sequence (P56373 1-397): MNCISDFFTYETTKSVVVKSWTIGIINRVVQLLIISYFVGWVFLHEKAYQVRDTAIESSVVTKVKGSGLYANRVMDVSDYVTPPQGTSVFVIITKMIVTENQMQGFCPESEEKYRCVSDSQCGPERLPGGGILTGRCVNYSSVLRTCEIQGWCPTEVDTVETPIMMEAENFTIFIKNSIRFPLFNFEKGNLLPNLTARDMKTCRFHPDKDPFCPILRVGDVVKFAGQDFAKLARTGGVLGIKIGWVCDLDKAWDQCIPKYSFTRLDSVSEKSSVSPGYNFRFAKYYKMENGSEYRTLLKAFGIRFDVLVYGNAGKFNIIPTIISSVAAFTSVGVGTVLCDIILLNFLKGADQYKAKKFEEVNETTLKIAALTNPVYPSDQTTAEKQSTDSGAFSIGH
# Assay: Intracellular Calcium Measurement to Assess Antagonist Affinity (FLIPR, Fluo-4, agonist α,β-meATP)
# Assay type: cell-based
# Details: Intracellular Calcium Measurement to Assess Antagonist Affinity assay; [α,β-meATP]final=EC50
# Description: Generation of a Human P2X3 and P2X2/3 Stable Cell Line—Human P2X3 receptor cDNA (Accession number NM_002559) was subcloned as a 5′XhoI and 3′HindIII fragment into the expression vector pcDNA5/FRT (Invitrogen). Human P2X2 receptor cDNA (Accession number NM_174873) was subcloned as a 5′EcoRI and 3′NotI fragment into the expression vector pIRESneo2 (BD Biosciences Clontech). The human P2X3 expression construct was transfected using Lipofectamine 2000 (Invitrogen) into Flp-in—293 cells (Invitrogen) according to the manufacturer's directions. Cells positive for flp-mediated recombination of […] P2X3 were selected using 150 μg/ml hygromycin. The stable human P2X3 cell line was co-transfected with the human P2X2 expression construct using Lipofectamine 2000 as above and co-transfected cells selected using […] hygromycin and 1 mg/ml G418. The stable P2X3 cell line was propagated in DMEM, 10% FBS, 100 μg/ml hygromycin, and 100 units/ml penicillin and 100 μg/ml streptomycin, and maintained at 37° and 95% humidity. The stable P2X2/3 cell line was propagated as above with the addition of 500 μg/ml G418.
# Intracellular Calcium Measurement to Assess Antagonist Affinity—A fluorescent imaging plate reader (FLIPR; Molecular Devices) was used to monitor intracellular calcium levels using the calcium-chelating dye Fluo-4 (Molecular Probes). The excitation and emission wavelengths used to monitor fluorescence were 488 nm and 530 nm, respectively. Cells expressing either human P2X3 or human P2X2/3 were plated at a density of 20,000 cells/well (20 μl/well) in 384-well black-walled plates approximately 20 hours before beginning the assay. On the day of the assay 20 μl of loading buffer (Hank's balanced salt solution, 2.5 mM CaCl2, 20 mM HEPES, 0.1% BSA, 2.5 mM probenecid, TR-40, Fluo-4, and 138 mM NMDG substituted for NaCl) is added and cells dye-loaded for […] in the dark at room temperature. Ten minutes prior to adding agonist, the antagonist was added in a volume of 10 μl and allowed to incubate at room temperature. During this period fluorescence data is collected at 3 sec intervals followed by 10 sec intervals. The agonist, α,β-meATP, is added at a 6× concentration ([α,β-meATP]final=EC50). Following agonist addition fluorescence was measured at 5 sec intervals and analyzed based on the increase in peak relative fluorescence units (RFU) compared to the basal fluorescence. Peak fluorescence was used to determine the inhibitory effect at each concentration of antagonist by the following equation: % Inhibition=100*(1−((RFU(drug)−RFU(control))/(RFU(DMSO only)−RFU(control))))
row,IC50 [µM],Structure (SMILES)
1,0.11,"C[C@@H](NC(=O)c1cc(C2=NO[C@H](c3ccccn3)C2)cc(-c2ccc(Cl)cn2)c1)c1ccc(F)cn1 [3-(5-chloropyridin-2-yl)-N-[(1R)-1-(5-fluoropyridin-2-yl)ethyl]-5-[(5S)-5-pyridin-2-yl-4,5-dihydroisoxazol-3-yl]benzamide]"
2,0.01,"Cc1ccc(-c2cc(C(=O)N[C@H](C)c3ccc(C(F)(F)F)nc3)cc(C3=NO[C@H](c4ccccn4)C3)c2)nc1 [3-(5-methylpyridin-2-yl)-5-[(5S)-5-pyridin-2-yl-4,5-dihydroisoxazol-3-yl]-N-{(1R)-1-[6-(trifluoromethyl)pyridin-3-yl]ethyl}benzamide]"
3,0.058,"Cc1ccc(-c2cc(C(=O)N[C@H](C)c3ncc(F)cc3F)cc(C3=NOC4(CCC4)C3)c2)nc1 [N-[(1R)-1-(3,5-difluoropyridin-2-yl)ethyl]-3-(5-methylpyridin-2-yl)-5-(5-oxa-6-azaspiro[3.4]oct-6-en-7-yl)benzamide]"
4,0.02,"Cc1ccc(-c2cc(C(=O)N[C@H](C)c3ccc(F)cn3)cc(C3=NO[C@H](c4ccccn4)C3)c2)nc1 [N-[(1R)-1-(5-fluoropyridin-2-yl)ethyl]-3-(5-methylpyridin-2-yl)-5-[(5S)-5-pyridin-2-yl-4,5-dihydroisoxazol-3-yl]benzamide]"
